Values after ≈ are worked out from the molar mass of the structure shown. Read-outs that look alike come from different tables or passages of the source.
Legend:
Assay type in all cases: cell-based
[1] = test system: mitochondrial protein synthesis in HepG2 cells; assay: Mitochondrial protein synthesis assay (COX-I to SDH-A ratio, In Cell ELISA); settings: 4 days, ratio of COX-I to SDH-A levels, read-out: MPS IC50
Protocol: Mitochondrial Protein Synthesis Assay
Inhibition of mitochondrial protein synthesis was assessed in HepG2 cells by comparing the levels of two subunits of oxidative phosphorylation enzyme complexes, subunit I of Complex IV (COX-I) and the 70 kDa subunit of Complex II (SDH-A). COX-I is mitochondrial DNA encoded and SDH-A is nuclear DNA encoded. HepG2 cells were seeded in 96-well collagen coated plates at 8,000 cells per well and exposed to 2-fold serial dilutions of compounds from 100 μM to 6.25 μM. Microtiter plates were incubated for approximately 5 replication cycles (4 days) prior to assessment of protein levels using a kit as described by the manufacturer (ab110217 MitoBiogenesis In Cell ELISA Kit, Abcam, Cambridge, MA). Inhibition of mitochondrial protein synthesis was expressed as a ratio of COX-1 to SDH-A levels.

[2] = test system: Mycobacterium tuberculosis (Mtb-GFP; H37Rv pMSP12::GFP); assay: microbe, parasite or virus in culture; settings: 168 h, pH 6.8, read-out: Mtb Cho MITC95, cholesterol carbon source, pH 6.8, 7-day growth, GFP fluorescence, lowest concentration inhibiting 95% of growth
[3] = test system: Mycobacterium tuberculosis (Mtb-GFP; H37Rv pMSP12::GFP); assay: microbe, parasite or virus in culture; settings: 168 h, pH 6.8, read-out: Mtb Glu MITC95, glucose carbon source, pH 6.8, 7-day growth, GFP fluorescence, lowest concentration inhibiting 95% of growth

Row | SMILES | IC50 ([1]; Homo sapiens, HepG2, 96 h) [µM] | MIC [2] [µM] | MIC [3] [µM] | IC50 [1] [µM]
1 | CC1(c2nnc3cc(-c4ccc(C5=NO[C@@H](Cn6ccnn6)C5)cc4F)ccn23)CNC1 [Example 12, 7-(2-Fluoro-4-{(5R)-5-[(1H-1,2,3-triazol-1-yl)methyl]-4,5-dihydro-1,2-oxazol-3-yl}phenyl)-3-(3-methylazetidin-3-yl)[1,2,4]triazolo[4,3-a]pyridine] | > 100 | 0.78 (≈ 0.337 µg/mL) | 0.78 (≈ 0.337 µg/mL) | 
2 | CN1CC(F)(S(=O)(=O)c2ccc(-c3ccc(C4=NO[C@@H](Cn5ccnn5)C4)cc3F)cc2)C1 [Example 44, l-({(5R)-3-[2-Fluoro-4′-(3-fluoro-1-methylazetidine-3-sulfonyl)[1,1′-biphenyl]-4-yl]-4,5-dihydro-1,2-oxazol-5-yl}methyl)-1H-1,2,3-triazole] | 1.4 | 0.12 (≈ 0.0568 µg/mL) | 0.09 (≈ 0.0426 µg/mL) | 
3 | CN=S1(=O)CCC(F)(c2c(F)cc(C3=NO[C@@H](CNC(=O)OC)C3)cc2F)CC1 (single isomer, unassigned) [Example 8] | > 100 | 3.12 (≈ 1.35 µg/mL) | 3.12 (≈ 1.35 µg/mL) | 
4 | CN1CC(C)(S(=O)(=O)c2ccc(-c3ccc(C4=NO[C@@H](C(N)=O)C4)cc3F)cc2)C1 [Example 56, (5R)-3-[4′-(1,3-Dimethylazetidine-3-sulfonyl)-2-fluoro[1,1′-biphenyl]-4-yl]-4,5-dihydro-1,2-oxazole-5-carboxamide] | > 100 | 6.25 (≈ 2.7 µg/mL) | 13 (≈ 5.61 µg/mL) | 
5 | CN1CC(F)(C(F)(F)c2ccc(-c3ccc(C4=NO[C@@H](Cn5ccnn5)C4)cc3F)cc2)C1 [Example 15, (5R)-3-[4-[4-[Difluoro-(3-fluoro-1-methyl-azetidin-3-yl)methyl]phenyl]-3-fluoro-phenyl]-5-(triazol-1-ylmethyl)-4,5-dihydroisoxazole] | 4.3 | 0.055 (≈ 0.0253 µg/mL) | 0.035 (≈ 0.0161 µg/mL) | 
6 | CS(=O)(=O)NC[C@H]1CC(c2ccc(-c3ccc(S(C)(=O)=O)cc3)c(F)c2)=NO1 [Example 19, N-({(5R)-3-[2-Fluoro-4′-(methanesulfonyl)[1,1′-biphenyl]-4-yl]-4,5-dihydro-1,2-oxazol-5-yl}methyl) methanesulfonamide] | > 100 | 9.38 (≈ 4 µg/mL) | 6.25 (≈ 2.67 µg/mL) | 
7 | COC(=O)NC[C@H]1CC(c2cc(F)c(C3(F)CCS(=O)(=O)CC3)c(F)c2)=NO1 [Example 2, Methyl N-[[(5R)-3-[3,5-difluoro-4-(4-fluoro-1,1-dioxo-thian-4-yl)phenyl]-4,5-dihydroisoxazol-5-yl]methyl]carbamate] | > 100 | 1.6 (≈ 0.673 µg/mL) | 1.6 (≈ 0.673 µg/mL) | 
8 | O=S1(=O)CCN(c2c(F)cc(C3=NO[C@@H](Cn4ccnn4)C3)cc2F)CC1 [Example 5, 4-(2,6-Difluoro-4-{(5R)-5-[(1H-1,2,3-triazol-1-yl)methyl]-4,5-dihydro-1,2-oxazol-3-yl}phenyl)-1λ^6-thiomorpholine-1,1-dione] |  | 3.12 (≈ 1.24 µg/mL) | 3.12 (≈ 1.24 µg/mL) | 
9 | CN1CC(C)(S(=O)(=O)c2ccc(-c3ccc(C4=NO[C@@H](CNC(=O)C5(C)CC5)C4)cc3F)cc2)C1 [Example 27, N-({(5R)-3-[4′-(1,3-Dimethylazetidine-3-sulfonyl)-2-fluoro[1,1′-biphenyl]-4-yl]-4,5-dihydro-1,2-oxazol-5-yl}methyl)-1-methylcyclopropane-1-carboxamide] | 37 | 0.78 (≈ 0.39 µg/mL) | 0.78 (≈ 0.39 µg/mL) | 
10 | CN1CC(CF)(S(=O)(=O)c2ccc(-c3ccc(C4=NO[C@@H](Cn5ccnn5)C4)cc3F)cc2)C1 [Example 25, 1-{[(5R)-3-{2-Fluoro-4′-[3-(fluoromethyl)-1-methylazetidine-3-sulfonyl][1,1′-biphenyl]-4-yl}-4,5-dihydro-1,2-oxazol-5-yl]methyl}-1H-1,2,3-triazole] | 2.5 | 0.09 (≈ 0.0439 µg/mL) | 0.19 (≈ 0.0926 µg/mL) | 
11 | N=S1(=O)CCC(F)(c2c(F)cc(C3=NO[C@@H](Cn4ccnn4)C3)cc2F)CC1 (stereo partly drawn) [Example 39, 4-(2,6-Difluoro-4-{(5R)-5-[(1H-1,2,3-triazol-1-yl)methyl]-4,5-dihydro-1,2-oxazol-3-yl}phenyl)-4-fluoro-1-imino-1λ^6-thian-1-one] |  |  |  | > 100
12 | CCC1(S(=O)(=O)c2ccc(-c3ccc(C4=NO[C@@H](Cn5ccnn5)C4)cc3F)cc2)CN(C)C1 [Example 43, 1-({(5R)-3-[4′-(3-Ethyl-1-methylazetidine-3-sulfonyl)-2-fluoro[1,1′-biphenyl]-4-yl]-4,5-dihydro-1,2-oxazol-5-yl}methyl)-1H-1,2,3-triazole] | 4.1 | 0.19 (≈ 0.0919 µg/mL) | 0.19 (≈ 0.0919 µg/mL) | 
13 | Fc1cc(C2=NO[C@@H](Cn3ccnn3)C2)ccc1-c1ccn2c(C3(F)CNC3)nnc2c1 [Example 52, 3-(3-Fluoroazetidin-3-yl)-7-(2-fluoro-4-{(5R)-5-[(1H-1,2,3-triazol-1-yl)methyl]-4,5-dihydro-1,2-oxazol-3-yl}phenyl)[1,2,4]triazolo [4.3-a]pyridine] | 27 | 0.78 (≈ 0.34 µg/mL) | 0.78 (≈ 0.34 µg/mL) | 
14 | CN=S1(=O)CCC(F)(c2c(F)cc(C3=NO[C@@H](Cn4ccnn4)C3)cc2F)CC1 (single isomer, unassigned) [Example 7] |  |  |  | > 100
15 | CN1CC(C)(S(=O)(=O)c2ccc(-c3ccc(C4=NO[C@@H](CNC(=O)OC5CC5)C4)cc3F)cc2)C1 [Example 17, Cyclopropyl N-[[(5R)-3-[4-[4-(1,3-dimethylazetidin-3-yl)sulfonylphenyl]-3-fluoro-phenyl]-4,5-dihydroisoxazol-5-yl]methyl]carbamate] |  | 0.39 (≈ 0.196 µg/mL) | 0.39 (≈ 0.196 µg/mL) | 
16 | O=S1(=O)CCC(F)(c2c(F)cc(C3=NO[C@@H](CO)C3)cc2F)CC1 [Example 47, 4-{2,6-Difluoro-4-[(5R)-5-(hydroxymethyl)-4,5-dihydro-1,2-oxazol-3-yl]phenyl}-4-fluoro-1λ^6-thiane-1,1-dione] | > 100 | 6.25 (≈ 2.27 µg/mL) | 6.25 (≈ 2.27 µg/mL) | 
17 | CN1CC(S(=O)(=O)c2ccc(-c3ccc(C4=NO[C@@H](Cn5ccnn5)C4)cc3F)cc2)C1 [Example 32, 1-({(5R)-3-[2-Fluoro-4′-(1-methylazetidine-3-sulfonyl)[1,1′-biphenyl]-4-yl]-4,5-dihydro-1,2-oxazol-5-yl}methyl)-1H-1,2,3-triazole] | 0.77 | 0.09 (≈ 0.041 µg/mL) | 0.065 (≈ 0.0296 µg/mL) | 
18 | CN1CC(C)(S(=O)(=O)c2ccc(-c3ccc(C4=NO[C@@H](CNC(=O)C56CC(C5)C6)C4)cc3F)cc2)C1 [Example 28, N-({(5R)-3-[4′-(1,3-Dimethylazetidine-3-sulfonyl)-2-fluoro[1,1′-biphenyl]-4-yl]-4,5-dihydro-1,2-oxazol-5-yl}methyl)bicyclo[1.1.1] pentane-1-carboxamide] | 62 | 0.78 (≈ 0.399 µg/mL) | 1.56 (≈ 0.798 µg/mL) | 
19 | CN1CC(S(=O)(=O)c2ccc(-c3ccc(C4=NO[C@@H](CNS(C)(=O)=O)C4)cc3F)cc2)C1 [Example 11, N-({(5R)-3-[2-Fluoro-4′-(1-methylazetidine-3-sulfonyl)[1,1′-biphenyl]-4-yl]-4,5-dihydro-1,2-oxazol-5-yl}methyl)methanesulfonamide] | > 100 | 1.17 (≈ 0.563 µg/mL) | 0.975 (≈ 0.47 µg/mL) | 
20 | CC1(S(=O)(=O)c2ccc(-c3ccc(C4=NO[C@@H](Cn5ccnn5)C4)cc3F)cc2)CNC1 [Example 23, 1-({(5R)-3-[2-Fluoro-4′-(3-methylazetidine-3-sulfonyl)[1,1′-biphenyl]-4-yl]-4,5-dihydro-1,2-oxazol-5-yl}methyl)-1H-1,2,3-triazole] | 16 | 0.78 (≈ 0.355 µg/mL) | 1.56 (≈ 0.711 µg/mL) | 
21 | O=C(NC[C@H]1CC(c2cc(F)c(C3(F)CCS(=O)(=O)CC3)c(F)c2)=NO1)OC1CC1 [Example 50, Cyclopropyl({(5R)-3-[3,5-difluoro-4-(4-fluoro-1,1-dioxo-1λ^6-thian-4-yl)phenyl]-4,5-dihydro-1,2-oxazol-5-yl}methyl)carbamate] | > 100 | 3.12 (≈ 1.39 µg/mL) | 3.12 (≈ 1.39 µg/mL) | 
22 | COC(=O)NC[C@H]1CC(c2ccc(-c3ccc(S(=O)(=O)C4(C)CN(C)C4)cc3)c(F)c2)=NO1 [Example 14, Methyl N-[[(5R)-3-[4-[4-(1,3-dimethylazetidin-3-yl)sulfonylphenyl]-3-fluoro-phenyl]-4,5-dihydroisoxazol-5-yl]methyl]carbamate] | 42 | 0.12 (≈ 0.0571 µg/mL) | 0.12 (≈ 0.0571 µg/mL) | 
23 | CN=S1(=O)CCN(c2c(F)cc(C3=NO[C@@H](Cn4ccnn4)C3)cc2F)CC1 [Example 31, 4-(2,6-Difluoro-4-{(5R)-5-[(1H-1,2,3-triazol-1-yl)methyl]-4,5-dihydro-l,2-oxazol-3-yl}phenyl)-1-(methylimino)-1λ^6-thiomorpholin-1-one] | > 100 | 5.47 (≈ 2.25 µg/mL) | 4.69 (≈ 1.93 µg/mL) | 
24 | CN=S1(=O)CCC(F)(c2c(F)cc(C3=NO[C@@H](CNC(=O)OC)C3)cc2F)CC1 (single isomer, unassigned) [Example 9] |  |  |  | > 100
25 | CN=S1(=O)CCC(F)(c2c(F)cc(C3=NO[C@@H](CNC(C)=O)C3)cc2F)CC1 (stereo partly drawn) [Example 30, N-{[(5R)-3-{3,5-Difluoro-4-[4-fluoro-1-(methylimino)-1-oxo-1λ^6-thian-4-yl]phenyl}-4,5-dihydro-1,2-oxazol-5-yl]methyl}acetamide] |  |  |  | > 100
